Results reported in patent publication US9783537B2, “3-(4-ethylnylphenyl) pyridopyrimidinone compounds and process for preparation thereof useful as potential anticancer agents” (Council of Scientific & Industrial Research, priority 2013, dated 2017).
Where two headings read alike, the source gives them in different places.

Key:
A549/ATCC = experiment: SRB 48 h growth assay, Non-small Cell Lung A549/ATCC; assay type: cell-based, human
MDA-MB-435 = experiment: SRB 48 h growth assay, Melanoma MDA-MB-435; assay type: cell-based, human; details: Homo sapiens, MDA-MB-435, Melanoma
SW-620 = experiment: SRB 48 h growth assay, Colon SW-620; assay type: cell-based, human; details: SW-620, Colon
PC-3 = experiment: SRB 48 h growth assay, Prostate PC-3; assay type: cell-based, human; details: PC-3, Prostate
MDA-MB-231/ATCC = experiment: SRB 48 h growth assay, Breast MDA-MB-231/ATCC; assay type: cell-based, human
SK-MEL-5 = experiment: SRB 48 h growth assay, Melanoma SK-MEL-5; assay type: cell-based, human; details: SK-MEL-5, Melanoma
BT-549 = experiment: SRB 48 h growth assay, Breast BT-549; assay type: cell-based, human; details: BT-549, Breast
[1] = tested on: six CNS cancer cell line (SF-268, SF-295, SF-539, SNB-19, SNB-75 and U251); experiment: in vitro anticancer activity, CNS panel; assay type: cell-based; details: Homo sapiens; six CNS cancer cell lines, exposure at least 48 h; read-out: GI50, range over panel
[2] = tested on: seven colon cancer cell line (COLO 205, HCC-2998, HCT-116, HCT-15, HT29, KM12 and SW-620); experiment: in vitro anticancer activity, colon panel; assay type: cell-based; details: Homo sapiens; seven colon cancer cell lines, exposure at least 48 h; read-out: GI50, range over panel
SNB-75 = experiment: SRB 48 h growth assay, CNS SNB-75; assay type: cell-based, human; details: SNB-75, CNS; for GI50: Homo sapiens
SK-OV-3 = experiment: SRB 48 h growth assay, Ovarian SK-OV-3; assay type: cell-based, human; details: SK-OV-3, Ovarian
[3] = tested on: six leukemia cancer cell lines (CCRF-CEM, HL-60, K-562, MOLT-4, SR and RPMI-8226); experiment: in vitro anticancer activity, leukemia panel; assay type: cell-based; details: Homo sapiens, exposure at least 48 h, read-out: GI50, range over panel
NCI-H522 = experiment: SRB 48 h growth assay, Non-small Cell Lung NCI-H522; assay type: cell-based, human
ACHN = experiment: SRB 48 h growth assay, Renal ACHN; assay type: cell-based, human; details: for GI50: Homo sapiens
K-562 = experiment: SRB 48 h growth assay, Leukemia K-562; assay type: cell-based, human
RPMI-8226 = experiment: SRB 48 h growth assay, Leukemia RPMI-8226; assay type: cell-based, human; details: RPMI-8226, Leukemia; for GI50: Homo sapiens
MDA-MB-468 = experiment: SRB 48 h growth assay, Breast MDA-MB-468; assay type: cell-based, human; details: MDA-MB-468, Breast
LOX IMVI = experiment: SRB 48 h growth assay, Melanoma LOX IMVI; assay type: cell-based, human; details: for GI50: Homo sapiens
M14 = experiment: SRB 48 h growth assay, Melanoma M14; assay type: cell-based, human; details: for GI50: Homo sapiens
DU-145 = experiment: SRB 48 h growth assay, Prostate DU-145; assay type: cell-based, human; details: DU-145, Prostate; for GI50: Homo sapiens
HL-60(TB) = experiment: SRB 48 h growth assay, Leukemia HL-60(TB); assay type: cell-based, human
NCI-H226 = experiment: SRB 48 h growth assay, Non-small Cell Lung NCI-H226; assay type: cell-based, human
[4] = in vitro anticancer activity, melanoma panel; assay type: cell-based; details: Homo sapiens; nine melanoma cell lines, exposure at least 48 h; read-out: GI50, range over panel
TK-10 = experiment: SRB 48 h growth assay, Renal TK-10; assay type: cell-based, human; details: TK-10, Renal; for GI50: Homo sapiens
MCF7 = experiment: SRB 48 h growth assay, Breast MCF7; assay type: cell-based, human; details: Homo sapiens
UACC-62 = experiment: SRB 48 h growth assay, Melanoma UACC-62; assay type: cell-based, human; details: UACC-62, Melanoma
[5] = Homo sapiens, read-out: Growth Inhibition GI50
[6] = Homo sapiens, read-out: Log10 GI50 (converted)
[7] = Homo sapiens, read-out: Log10 LC50 (converted)
[8] = read-out: Growth Inhibition GI50
[9] = read-out: Log10 GI50 (converted)

C#Cc1ccc(-n2c(/C=C/c3ccc4ccccc4n3)nc3ncccc3c2=O)cc1 [4t, (E)-3-(4-Ethynylphenyl)-2-(2-(quinolin-2-yl)vinyl)pyrido[2,3-d]pyrimidin-4(3H)-one]
Log10 TGI50 (A549/ATCC): −5.74
GI50 (A549/ATCC; [5]): 350 nM
GI50 (A549/ATCC; [6]): 355 nM
CC50 (A549/ATCC; [7]): > 100000 nM
GI50 (MDA-MB-435; [8]): 190 nM
GI50 (MDA-MB-435; [9]): 195 nM
GI50 (SW-620; [5]): 350 nM
GI50 (SW-620; [6]): 355 nM
CC50 (SW-620; [7]): 3890 nM
Log10 TGI50 (SW-620): −5.90
GI50 (PC-3; [5]): 340 nM
GI50 (PC-3; [6]): 339 nM
CC50 (PC-3; [7]): > 100000 nM
Log10 TGI50 (PC-3): −5.76
Log10 TGI50 (MDA-MB-231/ATCC): −5.93
GI50 (MDA-MB-231/ATCC; [5]): 330 nM
GI50 (MDA-MB-231/ATCC; [6]): 331 nM
CC50 (MDA-MB-231/ATCC; [7]): > 100000 nM
GI50 (SK-MEL-5; [5]): 170 nM
GI50 (SK-MEL-5; [6]): 178 nM
CC50 (SK-MEL-5; [7]): 759 nM
Log10 TGI50 (SK-MEL-5): −6.43
Log10 TGI50 (BT-549): −5.87
GI50 (BT-549; [5]): 350 nM
GI50 (BT-549; [6]): 355 nM
CC50 (BT-549; [7]): 5500 nM
GI50 [1]: 940 to 5240 nM
GI50 [2]: 3550 to 52800 nM
GI50 (SNB-75; [8]): 330 nM
GI50 (SNB-75; [9]): 339 nM
Log10 TGI50 (SNB-75): −5.85
GI50 (SK-OV-3; [5]): 320 nM
GI50 (SK-OV-3; [6]): 324 nM
CC50 (SK-OV-3; [7]): > 100000 nM
Log10 TGI50 (SK-OV-3): −6.03
GI50 [3]: 3200 to 7350 nM
Log10 TGI50 (NCI-H522): −6.10
GI50 (NCI-H522; [5]): 270 nM
GI50 (NCI-H522; [6]): 269 nM
CC50 (NCI-H522; [7]): 4900 nM
Log10 TGI50 (ACHN): −5.89
GI50 (ACHN; [8]): 320 nM
GI50 (ACHN; [9]): 324 nM
GI50 (K-562; Homo sapiens, K562, K-562, Leukemia, read-out: Growth Inhibition GI50): 330 nM
GI50 (K-562; Homo sapiens, K562, K-562, Leukemia, read-out: Log10 GI50 (converted)): 331 nM
CC50 (K-562; Homo sapiens, K562, K-562, Leukemia, read-out: Log10 LC50 (converted)): > 100000 nM
Log10 TGI50 (K-562; K-562, Leukemia): >−4.00
GI50 (RPMI-8226; [8]): 260 nM
GI50 (RPMI-8226; [9]): 269 nM
Log10 TGI50 (RPMI-8226): −5.99
GI50 (MDA-MB-468; [5]): 230 nM
GI50 (MDA-MB-468; [6]): 234 nM
CC50 (MDA-MB-468; [7]): 3470 nM
Log10 TGI50 (MDA-MB-468): −6.05
Log10 TGI50 (LOX IMVI): −5.99
GI50 (LOX IMVI; [8]): 320 nM
GI50 (LOX IMVI; [9]): 324 nM
Log10 TGI50 (M14): −6.18
GI50 (M14; [8]): 260 nM
GI50 (M14; [9]): 263 nM
Log10 TGI50 (DU-145): −6.15
GI50 (DU-145; [8]): 280 nM
GI50 (DU-145; [9]): 282 nM
Log10 TGI50 (HL-60(TB)): −6.07
GI50 (HL-60(TB); [5]): 290 nM
GI50 (HL-60(TB); [6]): 295 nM
CC50 (HL-60(TB); [7]): > 100000 nM
Log10 TGI50 (NCI-H226): −6.15
GI50 (NCI-H226; [5]): 250 nM
GI50 (NCI-H226; [6]): 251 nM
LC50 (NCI-H226; [7]): 5890 nM
GI50 [4]: 1600 to 6300 nM
GI50 (TK-10; [8]): 430 nM
GI50 (TK-10; [9]): 437 nM
Log10 TGI50 (TK-10): −5.82
GI50 (MCF7; [8]): 280 nM
GI50 (MCF7; [9]): 288 nM
CC50 (MCF7; read-out: Log10 LC50 (converted)): > 100000 nM
GI50 (UACC-62; [5]): 390 nM
GI50 (UACC-62; [6]): 398 nM
CC50 (UACC-62; [7]): 9330 nM
Log10 TGI50 (UACC-62): −5.67
